ChEMBL document CHEMBL4138123, “Design, synthesis and biological evaluation of novel pyrazolochalcones as potential modulators of PI3K/Akt/mTOR pathway and inducers of apoptosis in breast cancer cells” (Eur J Med Chem, 2017)

Experiments:
Format in all cases: functional
ACHN [1] = test: Cytotoxicity against human ACHN cells assessed as cell growth at 0.01 uM after 48 hrs by sulforhodamine B assay relative to control; conditions: read-out: Activity
HCT-15 [2] = test: Cytotoxicity against human HCT15 cells assessed as cell growth at 0.1 uM after 48 hrs by sulforhodamine B assay relative to control; conditions: HCT-15, 48 h, read-out: Activity
HT-29 = test: Cytotoxicity against human HT-29 cells assessed as cell growth at 0.1 uM after 48 hrs by sulforhodamine B assay relative to control; conditions: HT-29, 48 h, read-out: Activity
PC-3 [3] = test: Cytotoxicity against human PC3 cells assessed as cell growth at 100 uM after 48 hrs by sulforhodamine B assay relative to control; conditions: PC-3, 48 h, read-out: Activity
SW-620 = test: Cytotoxicity against human SW620 cells assessed as cell growth at 0.01 uM after 48 hrs by sulforhodamine B assay relative to control; conditions: SW-620, 48 h, read-out: Activity
BT-549 = test: Cytotoxicity against human BT549 cells assessed as cell growth at 100 uM after 48 hrs by sulforhodamine B assay relative to control; conditions: BT-549, 48 h, read-out: Activity
NCI/ADR-RES = test: Cytotoxicity against human NCI/ADR-RES cells assessed as cell growth at 0.1 uM after 48 hrs by sulforhodamine B assay relative to control; conditions: read-out: Activity
MDA-MB-468 = test: Cytotoxicity against human MDA-MB-468 cells assessed as cell growth at 1 uM after 48 hrs by sulforhodamine B assay relative to control; conditions: MDA-MB-468, 48 h, read-out: Activity
A498 [4] = test: Cytotoxicity against human A498 cells assessed as cell growth at 0.1 uM after 48 hrs by sulforhodamine B assay relative to control; conditions: A498, 48 h, read-out: Activity
NCI-H23 = test: Cytotoxicity against human NCI-H23 cells assessed as growth inhibition after 48 hrs by sulforhodamine B assay; conditions: NCI-H23, 48 h; for CC50: read-out: LC50 (the source's name)
SNB-19 = test: Cytotoxicity against human SNB19 cells assessed as growth inhibition after 48 hrs by sulforhodamine B assay; conditions: SNB-19, 48 h
TK-10 [5] = test: Cytotoxicity against human TK10 cells assessed as cell growth at 0.01 uM after 48 hrs by sulforhodamine B assay relative to control; conditions: TK-10, 48 h, read-out: Activity
ACHN [6] = test: Cytotoxicity against human ACHN cells assessed as cell growth at 10 uM after 48 hrs by sulforhodamine B assay relative to control; conditions: read-out: Activity
MOLT-4 = test: Cytotoxicity against human MOLT4 cells assessed as cell growth at 100 uM after 48 hrs by sulforhodamine B assay relative to control; conditions: MOLT-4, 48 h, read-out: Activity
A498 [7] = test: Cytotoxicity against human A498 cells assessed as growth inhibition after 48 hrs by sulforhodamine B assay; conditions: A498, 48 h
HCC 2998 = test: Cytotoxicity against human HCC2998 cells assessed as cell growth at 10 uM after 48 hrs by sulforhodamine B assay relative to control; conditions: HCC 2998, 48 h, read-out: Activity
TK-10 [8] = test: Cytotoxicity against human TK10 cells assessed as cell growth at 10 uM after 48 hrs by sulforhodamine B assay relative to control; conditions: TK-10, 48 h, read-out: Activity
HOP-62 = test: Cytotoxicity against human HOP62 cells assessed as growth inhibition after 48 hrs by sulforhodamine B assay; conditions: HOP-62, 48 h
PC-3 [9] = test: Cytotoxicity against human PC3 cells assessed as cell growth at 10 uM after 48 hrs by sulforhodamine B assay relative to control; conditions: PC-3, 48 h, read-out: Activity
HCT-15 [10] = test: Cytotoxicity against human HCT15 cells assessed as cell growth at 1 uM after 48 hrs by sulforhodamine B assay relative to control; conditions: HCT-15, 48 h, read-out: Activity
OVCAR-8 = test: Cytotoxicity against human OVCAR8 cells assessed as cell growth at 0.01 uM after 48 hrs by sulforhodamine B assay relative to control; conditions: OVCAR-8, 48 h, read-out: Activity
M14 = test: Cytotoxicity against human M14 cells assessed as cell growth at 1 uM after 48 hrs by sulforhodamine B assay relative to control; conditions: M14, 48 h, read-out: Activity
KM12 = test: Cytotoxicity against human KM12 cells assessed as cell growth at 100 uM after 48 hrs by sulforhodamine B assay relative to control; conditions: KM12, 48 h, read-out: Activity
SK-MEL-28 = test: Cytotoxicity against human SK-MEL-28 cells assessed as cell growth at 0.1 uM after 48 hrs by sulforhodamine B assay relative to control; conditions: SK-MEL-28, 48 h, read-out: Activity
NCI-H460 = test: Cytotoxicity against human NCI-H460 cells assessed as cell growth at 0.01 uM after 48 hrs by sulforhodamine B assay relative to control; conditions: NCI-H460, 48 h, read-out: Activity
SK-MEL-5 = test: Cytotoxicity against human SK-MEL-5 cells assessed as growth inhibition after 48 hrs by sulforhodamine B assay; conditions: SK-MEL-5, 48 h
ACHN [11] = test: Cytotoxicity against human ACHN cells assessed as cell growth at 100 uM after 48 hrs by sulforhodamine B assay relative to control; conditions: read-out: Activity
MDA-MB-231 = test: Cytotoxicity against human MDA-MB-231 cells assessed as cell growth at 100 uM after 48 hrs by sulforhodamine B assay relative to control; conditions: MDA-MB-231, 48 h, read-out: Activity
SR = test: Cytotoxicity against human SR cells assessed as cell growth at 0.1 uM after 48 hrs by sulforhodamine B assay relative to control; conditions: read-out: Activity
DU-145 = test: Cytotoxicity against human DU145 cells assessed as cell growth at 1 uM after 48 hrs by sulforhodamine B assay relative to control; conditions: DU-145, 48 h, read-out: Activity
MDA-MB-435 = test: Cytotoxicity against human MDA-MB-435 cells assessed as cell growth at 0.1 uM after 48 hrs by sulforhodamine B assay relative to control; conditions: MDA-MB-435, 48 h, read-out: Activity
TK-10 [12] = test: Cytotoxicity against human TK10 cells assessed as growth inhibition after 48 hrs by sulforhodamine B assay; conditions: TK-10, 48 h
RPMI-8226 = test: Cytotoxicity against human RPMI8226 cells assessed as growth inhibition after 48 hrs by sulforhodamine B assay; conditions: RPMI-8226, 48 h
Malme-3M = test: Cytotoxicity against human MALME-3M cells assessed as cell growth at 100 uM after 48 hrs by sulforhodamine B assay relative to control; conditions: read-out: Activity
UO-31 = test: Cytotoxicity against human UO31 cells assessed as growth inhibition after 48 hrs by sulforhodamine B assay; conditions: UO-31, 48 h

Molecule `COc1ccc(C(=O)/C=C/c2cc(-c3cc(OC)c(OC)c(OC)c3)n[nH]2)cc1` has a growth at 0.01 µM (ACHN [1]) of 102%, a growth at 0.1 µM (HCT-15 [2]) of 100% and a growth at 0.1 µM (HT-29) of 102%. For the same molecule, the growth at 100 µM (PC-3 [3]) was 1%, the growth at 0.01 µM (SW-620) was 99% and the growth at 100 µM (BT-549) was -49%. The growth at 0.1 µM (NCI/ADR-RES) was 97%, the growth at 1 µM (MDA-MB-468) was 68% and the growth at 0.1 µM (A498 [4]) was 87%. The TGI (NCI-H23) was 12.2 µM, the CC50 (NCI-H23) was > 100 µM and the TGI (SNB-19) was 3.03 µM. The growth at 0.01 µM (TK-10 [5]) was 89%, the growth at 10 µM (ACHN [6]) was -83% and the growth at 100 µM (MOLT-4) was -4%. For the same molecule, the TGI (A498 [7]) was 3.94 µM, the growth at 10 µM (HCC 2998) was -83% and the growth at 10 µM (TK-10 [8]) was -29%. It also gave an LC50 (HOP-62) of 8.07 µM, a TGI (HOP-62) of 3.77 µM and a growth at 10 µM (PC-3 [9]) of -68%. For the same molecule, the growth at 1 µM (HCT-15 [10]) was 72%, the growth at 0.01 µM (OVCAR-8) was 95% and the growth at 1 µM (M14) was 99%. For the same molecule, the growth at 100 µM (KM12) was -74%, the growth at 0.1 µM (SK-MEL-28) was 104% and the growth at 0.01 µM (NCI-H460) was 103%. For the same molecule, the LC50 (concentration killing 50% of cells) (SK-MEL-5) was 6.1 µM, the TGI (SK-MEL-5) was 3.24 µM and the growth at 100 µM (ACHN [11]) was -93%. The growth at 100 µM (MDA-MB-231) was 19%, the growth at 0.1 µM (SR) was 83% and the growth at 1 µM (DU-145) was 76%. The growth at 0.1 µM (MDA-MB-435) was 95%, the LC50 (TK-10 [12]) was > 100 µM and the TGI (TK-10 [12]) was 5.77 µM. For the same molecule, the LC50 (RPMI-8226) was > 100 µM, the TGI (RPMI-8226) was 2.49 µM and the growth at 100 µM (Malme-3M) was -2%. It also gave an LC50 (UO-31) of 5.59 µM and a TGI (UO-31) of 2.84 µM.

Molecule `COc1ccc(-c2cc(/C=C/C(=O)c3cc(OC)c(OC)c(OC)c3)[nH]n2)cc1OC` has a growth at 0.01 µM (ACHN [1]) of 95%, a growth at 0.1 µM (HCT-15 [2]) of 90% and a growth at 0.1 µM (HT-29) of 99%. For the same molecule, the growth at 100 µM (PC-3 [3]) was -74%, the growth at 0.01 µM (SW-620) was 98% and the growth at 100 µM (BT-549) was -93%. The growth at 0.1 µM (NCI/ADR-RES) was 97%, the growth at 1 µM (MDA-MB-468) was 66% and the growth at 0.1 µM (A498 [4]) was 89%. The GI50 (NCI-H23) was 1.97 µM, the TGI (NCI-H23) was 4.91 µM and the CC50 (NCI-H23) was > 100 µM. It also gave a GI50 (SNB-19) of 1.8 µM, a TGI (SNB-19) of 5.32 µM and a CC50 (SNB-19; read-out: LC50 (the source's name)) of 27.1 µM. The growth at 0.01 µM (TK-10 [5]) was 93%, the growth at 10 µM (ACHN [6]) was -95% and the growth at 100 µM (MOLT-4) was -15%. For the same molecule, the GI50 (A498 [7]) was 1.46 µM, the LC50 (A498 [7]) was 22.3 µM and the TGI (A498 [7]) was 4.99 µM. It also gave a growth at 10 µM (HCC 2998) of -93%, a growth at 10 µM (TK-10 [8]) of 7% and a GI50 (HOP-62) of 1.45 µM. It also gave an LC50 (HOP-62) of 8.85 µM, a TGI (HOP-62) of 3.58 µM and a growth at 10 µM (PC-3 [9]) of 1%. For the same molecule, the growth at 1 µM (HCT-15 [10]) was 57%, the growth at 0.01 µM (OVCAR-8) was 100% and the growth at 1 µM (M14) was 91%. The growth at 100 µM (KM12) was -64%, the growth at 0.1 µM (SK-MEL-28) was 91% and the growth at 0.01 µM (NCI-H460) was 100%. For the same molecule, the GI50 (SK-MEL-5) was 1.58 µM, the LC50 (concentration killing 50% of cells) (SK-MEL-5) was 5.44 µM and the TGI (SK-MEL-5) was 2.93 µM. The growth at 100 µM (ACHN [11]) was -84%, the growth at 100 µM (MDA-MB-231) was -71% and the growth at 0.1 µM (SR) was 73%. For the same molecule, the growth at 1 µM (DU-145) was 87%, the growth at 0.1 µM (MDA-MB-435) was 91% and the GI50 (TK-10 [12]) was 3.27 µM. The LC50 (TK-10 [12]) was 36.9 µM, the TGI (TK-10 [12]) was 11.8 µM and the GI50 (RPMI-8226) was 0.29 µM. The LC50 (RPMI-8226) was > 100 µM, the TGI (RPMI-8226) was 1.66 µM and the growth at 100 µM (Malme-3M) was -62%. The GI50 (UO-31) was 1.27 µM, the LC50 (UO-31) was 5.29 µM and the TGI (UO-31) was 2.59 µM.
